Test results reported in patent US20140094465A1, “Compounds as S-Nitrosoglutathione Reductase Inhibitors” (N30 PHARMACEUTICALS, INC., priority 2011, published 2014).

Experiments:
[1] = target: T1, S-nitrosoglutathione reductase (GSNOR) (Homo sapiens, UniProt P11766); experiment: GSNOR assay (inhibition of GSNOR activity, NADH absorbance at 340 nm); assay type: biochemical; conditions: GSNOR inhibitor activity, Tables 1-6; read-out: IC50 range
T1 construct: made in house; host or cells: E. coli
Summary of the method: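 Recombinant GSNOR purified from E. coli, tag removed. Final conditions: 100 mM NaPO4 pH 7.4, 0.240 mM GSNO, 0.300 mM NADH, 0.5 μg/mL enzyme, 1% DMSO; NADH loss followed as 340 nm absorbance change over 3 min at 25 °C. Compounds 100–0.003 μM, triplicate; IC50 by curve analysis.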

[2] = system: dextran sodium sulfate (DSS)-induced IBD; experiment: Acute prophylactic model of DSS-induced IBD; assay type: in vivo, mouse; conditions: for decrease of percent of mice with severe colon injury scores via histopathology / decrease of percent of mice with severe colon injury scores via endoscopy: prophylactic
Source text: Acute and chronic models of dextran sodium sulfate (DSS)-induced IBD in mice were used to explore efficacy of GSNORi against this disease. Acute and chronic DSS-induced IBD are widely used and well characterized models that induce pathological changes in the colon similar to those observed in the human disease. In these models and in human disease, epithelial cells within the crypts of the colon are disrupted, leading to dysfunction of the epithelial barrier and the ensuing tissue inflammation, edema, and ulceration. GSNORi therapy may benefit IBD by restoring s-nitrosoglutathione (GSNO) levels, and thus prevent or reverse the epithelial barrier dysfunction. Experimental IBD was induced by administration of DSS in the drinking water of male C57Bl/6 mice (N=8 to 10 mice per group) for 6 consecutive days. GSNORi was dosed orally at doses of 0.1 to 10 mg/kg/day for 10 days starting two days prior to and continuing two days post DSS exposure. […] Levels of circulating cytokines involved in inflammatory pathways were also assessed. The effect of GSNORi was compared to vehicle treated controls. […] Naïve mice (N=5) were also assessed as a normal tissue control.

T1 sequence (P11766 whole entry): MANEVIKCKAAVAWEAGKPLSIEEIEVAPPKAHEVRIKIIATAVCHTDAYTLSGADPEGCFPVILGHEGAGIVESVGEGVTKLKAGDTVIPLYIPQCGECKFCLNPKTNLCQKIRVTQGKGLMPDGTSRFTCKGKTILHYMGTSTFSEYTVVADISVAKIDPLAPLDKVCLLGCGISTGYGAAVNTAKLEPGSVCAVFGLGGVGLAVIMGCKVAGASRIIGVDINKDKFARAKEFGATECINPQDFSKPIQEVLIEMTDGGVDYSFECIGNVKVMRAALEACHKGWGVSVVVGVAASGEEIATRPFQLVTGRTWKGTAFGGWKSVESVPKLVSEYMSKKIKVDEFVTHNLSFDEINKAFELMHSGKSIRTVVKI

| IC50 [1] | Compound | decrease of percent of mice with severe colon injury scores via histopathology ([2]; oral 10 mg/kg/day for 10 days) | decrease of percent of mice with severe colon injury scores via endoscopy ([2]; oral 10 mg/kg/day for 10 days) | decrease of percent of mice with severe colon injury scores via pathology ([2]; oral 0.1 mg/kg/day for 10 days) | decrease of percent of mice with severe colon injury scores via endoscopy ([2]; oral 0.1 mg/kg/day for 10 days) | decrease of percent of mice with severe colon injury scores via endoscopy ([2]; oral 1 mg/kg/day for 10 days) | decrease of percent of mice with severe colon injury scores via histopathology ([2]; oral 1 mg/kg/day for 10 days) |
| --- | --- | --- | --- | --- | --- | --- | --- |
| < 100 nM | O=c1c(-c2ccc(-c3nnn[nH]3)cc2)c(C(F)(F)F)oc2cc(O)ccc12 [IV-23] | 17 % of vehicle control | 75 % of vehicle control |  |  |  |  |
| < 100 nM | O=c1c2ccc(O)cc2oc(C(F)(F)F)c1[C@H]1CC[C@H](C(=O)O)CC1 [IV-25] |  |  | 12 % of vehicle control | 38 % of vehicle control | 25 % of vehicle control | 33 % of vehicle control |
| < 100 nM | O=c1[nH]c(-c2ccc(-c3c(C(F)(F)F)oc4cc(O)ccc4c3=O)cc2)no1 [IV-31] |  |  |  |  |  |  |
| < 100 nM | O=C(O)c1ccc(-c2c(C(F)(F)F)oc3cc(O)ccc3c2=O)c(F)c1 [IV-38] | 15 % of vehicle control | 58 % of vehicle control |  |  |  |  |

| Compound | IC50 [1] | decrease of percent of mice with severe colon injury scores via histopathology ([2]; oral 10 mg/kg/day for 10 days) | decrease of percent of mice with severe colon injury scores via endoscopy ([2]; oral 10 mg/kg/day for 10 days) | decrease of percent of mice with severe colon injury scores via pathology ([2]; oral 0.1 mg/kg/day for 10 days) | decrease of percent of mice with severe colon injury scores via endoscopy ([2]; oral 0.1 mg/kg/day for 10 days) | decrease of percent of mice with severe colon injury scores via endoscopy ([2]; oral 1 mg/kg/day for 10 days) | decrease of percent of mice with severe colon injury scores via histopathology ([2]; oral 1 mg/kg/day for 10 days) |
| --- | --- | --- | --- | --- | --- | --- | --- |
| O=C(O)c1ccc(-c2ccc3cc(O)ccc3c2)c(F)c1 [III-2] | < 100 nM | 26 % of vehicle control |  |  |  |  |  |
